Assays:
Staphylococcus aureus = test: Antibacterial activity against Staphylococcus aureus ATCC 25923 assessed as inhibition of bacterial growth incubated for 24 hrs by spectrophotometry; format: functional, organism-based; conditions: ATCC 25923, 24 h
Escherichia coli = test: Antibacterial activity against Escherichia coli ATCC 11775 assessed as inhibition of bacterial growth incubated for 24 hrs by spectrophotometry; format: functional, organism-based; conditions: ATCC 11775, 24 h
Candida albicans = test: Antifungal activity against Candida albicans ATCC 10231 assessed as inhibition of fungal growth incubated for 48 hrs by spectrophotometry; format: functional, organism-based; conditions: ATCC 10231, 48 h
SW-620 = test: Cytotoxicity against human SW620 cells assessed as inhibition of cell growth incubated for 48 hrs by MTT assay; format: functional, cell-based; conditions: SW-620, 48 h
NCI-H460 = test: Cytotoxicity against human NCI-H460 cells assessed as inhibition of cell growth incubated for 48 hrs by MTT assay; format: functional, cell-based; conditions: NCI-H460, 48 h

Measured: IC50

CCC(=O)[C@@H](C)C/C(C)=C/[C@@H](C)[C@H](O[C@@H]1CC[C@@H](O)[C@@H](C)O1)C1=CC(=O)C=C(N)C1=O
> 30 µM: Staphylococcus aureus | Escherichia coli | Candida albicans | SW-620 | NCI-H460

C/C1=C\[C@@H](C)[C@H](O)c2cc(O)cc3c2O[C@](C)(C(=O)N3)C(=O)[C@@H](C)C1
> 30 µM: Staphylococcus aureus | Escherichia coli | Candida albicans | SW-620 | NCI-H460

C/C1=C\[C@@H](C)[C@H](O[C@@H]2CC[C@@H](O)[C@@H](C)O2)C2=CC(=O)C(N)=C(NC(=O)C(C)C(=O)[C@@H](C)C1)C2=O (stereo not given in full)
> 30 µM: Staphylococcus aureus | Escherichia coli | Candida albicans | SW-620 | NCI-H460

C/C1=C\C(C)C(O)c2cc(O)cc3c2OC(C)(C(=O)N3)C(=O)C(C)C1 (stereo not given)
> 30 µM: Staphylococcus aureus | Escherichia coli | Candida albicans | SW-620 | NCI-H460

C/C1=C\[C@@H](C)[C@H](O[C@@H]2CC[C@@H](O)[C@@H](C)O2)c2cc(O)cc3c2O[C@](C)(C(=O)N3)C(=O)[C@@H](C)C1
> 30 µM: Staphylococcus aureus | Escherichia coli | Candida albicans | SW-620 | NCI-H460

C/C1=C\[C@@H](C)[C@H](O)C2=CC(=O)C(N)=C(NC(=O)C(C)C(=O)[C@@H](C)C1)C2=O (stereo not given in full)
> 30 µM: Staphylococcus aureus | Escherichia coli | Candida albicans | SW-620 | NCI-H460

C/C1=C\[C@@H](C)[C@H](O[C@@H]2CC[C@H](O)[C@@H](C)O2)c2cc(O)cc3c2O[C@](C)(C(=O)N3)C(=O)[C@@H](C)C1
> 30 µM: Staphylococcus aureus | Escherichia coli | Candida albicans | SW-620 | NCI-H460

C/C1=C\C(C)C(O)c2cc(O)cc3c2OC(CO)(C(=O)N3)C(=O)C(C)C1 (stereo not given)
> 30 µM: Staphylococcus aureus | Escherichia coli | Candida albicans | SW-620 | NCI-H460

C/C1=C\[C@@H](C)[C@H](O)c2cc(O)cc3c2O[C@](C)(C(=O)N3)C(=O)[C@H](C)C1
> 30 µM: Staphylococcus aureus | Escherichia coli | Candida albicans | SW-620 | NCI-H460

C/C1=C\[C@@H](C)[C@H](O)c2cc(O)cc(c2O)NC(=O)[C@@H](C)C(=O)[C@@H](C)C1
> 30 µM: Staphylococcus aureus | Escherichia coli | Candida albicans | SW-620 | NCI-H460

From ChEMBL document CHEMBL5634204, “Goondansamycins A-H: Benzenoid Ansamycins from an Australian Volcanic Crater Soil-Derived Actinomadura sp. S4S-00069B08” (J Nat Prod, 2024)
